Consider 14 compounds from PubChem BioAssay (NCI).

Among the test systems are ACHN renal; CAKI-1 renal; K-562 leukemia; OVCAR-4 ovarian; OVCAR-5 ovarian; OVCAR-8 ovarian; SK-OV-3 ovarian; SN12C renal; SNB-19 CNS; UO-31 renal.
Experiment in all cases: inhibition of tumour cell growth, NCI panel, 48 h

The structures appear in SMILES notation. Values joined by “and” are separate entries in the source; they are usually repeats but may differ in a detail not shown here. Identical values can stand only once.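 Compound exposure: 48 hours, 5 concentrations, 96-well plates. GI50 marks 50% less growth. TGI: total growth inhibition.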

Regarding `[Au+].c1c[n-]cn1.c1ccc([PH+](c2ccccc2)c2ccccc2)cc1`, the GI50 is 6.19 µM with ACHN renal; 4.69 µM in the assay on CAKI-1 renal; 2.61 µM in the assay with K-562 leukemia; 13.4 µM with OVCAR-4 ovarian; 20.9 µM in the assay with OVCAR-5 ovarian; 9.28 µM with OVCAR-8 ovarian. The GI50 in the assay on SK-OV-3 ovarian was 16.8 µM; in the assay on SN12C renal, 10.3 µM; with SNB-19 CNS it was 7.28 µM; in the assay with UO-31 renal, 8.36 µM. The TGI was 17.6 µM in the assay on ACHN renal; 16.4 µM with CAKI-1 renal; 30.4 µM in the assay on K-562 leukemia; 36.7 µM in the assay with OVCAR-4 ovarian; 42.3 µM in the assay on OVCAR-5 ovarian; 37.1 µM with OVCAR-8 ovarian. Moreover, the TGI with SK-OV-3 ovarian stood at 30.4 µM; in the assay on SN12C renal it was 27.4 µM; with SNB-19 CNS it was 18 µM; in the assay on UO-31 renal it was 19.4 µM.

As to `COc1ccc(Nc2ncccc2C(=O)NCc2cn(Cc3cccc(Oc4ccccc4)c3)nn2)c(OC)c1`, the GI50 was 3.94 µM in the assay with ACHN renal; 1.26 µM in the assay with CAKI-1 renal; 1.58 µM in the assay with K-562 leukemia; 5.27 µM in the assay with OVCAR-4 ovarian; 6.72 µM in the assay with OVCAR-5 ovarian; 3.81 µM in the assay with OVCAR-8 ovarian. The GI50 in the assay with SK-OV-3 ovarian was 2.13 µM; in the assay on SN12C renal, 3.51 µM; with SNB-19 CNS, 3.64 µM; in the assay with UO-31 renal, 5.54 µM. Besides, the TGI with ACHN renal, in the assay on CAKI-1 renal, with K-562 leukemia, in the assay with OVCAR-4 ovarian, in the assay on OVCAR-5 ovarian and with OVCAR-8 ovarian was more than 100 µM throughout. Moreover, the TGI with SK-OV-3 ovarian was more than 30.1 µM; in the assay on SN12C renal, more than 100 µM; with SNB-19 CNS, more than 100 µM; in the assay on UO-31 renal, more than 100 µM.

For `O=[N+]([O-])c1cccc([I+]c2ccccc2)c1`, the GI50 in the assay on ACHN renal is 19.6 µM; with CAKI-1 renal it was 3.42 µM; with K-562 leukemia, 3.26 µM; in the assay with OVCAR-4 ovarian, 7.13 µM; with OVCAR-5 ovarian, 17.7 µM; with OVCAR-8 ovarian it was 4.37 µM. For the same compound, the GI50 in the assay with SK-OV-3 ovarian was 13.8 µM; in the assay with SN12C renal it was 10.4 µM; in the assay with SNB-19 CNS it was 13.4 µM; in the assay with UO-31 renal, 8.71 µM. Besides, the TGI with ACHN renal was more than 100 µM; in the assay on CAKI-1 renal, 49 µM; in the assay on K-562 leukemia it was 32.1 µM; with OVCAR-4 ovarian, 36 µM; in the assay on OVCAR-5 ovarian, 38.4 µM; in the assay with OVCAR-8 ovarian, 17.6 µM. Also, the TGI with SK-OV-3 ovarian came out at 27.5 µM; in the assay on SN12C renal it was 22.8 µM; in the assay with SNB-19 CNS, 26.5 µM; with UO-31 renal it was 85.5 µM.

Take `NCCCCCCCCCn1c2c(c3ccccc3c1=O)C(=O)c1ccccc1-2`: the GI50 was 8.2 µM in the assay with ACHN renal; 9.15 µM with CAKI-1 renal; 7.42 µM in the assay with K-562 leukemia; 10.3 µM in the assay with OVCAR-4 ovarian; 9.6 µM in the assay on OVCAR-5 ovarian; 12.5 µM in the assay with OVCAR-8 ovarian. The GI50 in the assay on SK-OV-3 ovarian was 10.1 µM; with SN12C renal it was 8.48 µM; in the assay with SNB-19 CNS, 9.27 µM; in the assay on UO-31 renal it was 7.68 µM. In addition, the TGI is 17 µM with ACHN renal; 18.8 µM in the assay on CAKI-1 renal; 32.3 µM in the assay with K-562 leukemia; 25.9 µM in the assay with OVCAR-4 ovarian; 19.5 µM in the assay on OVCAR-5 ovarian; more than 50 µM in the assay on OVCAR-8 ovarian. Moreover, the TGI in the assay on SK-OV-3 ovarian is 18.7 µM; with SN12C renal it was 18.4 µM; with SNB-19 CNS, 22.6 µM; in the assay with UO-31 renal, 18.6 µM.

With `Cc1ccnc(NC(c2ccccc2)c2ccc3cccnc3c2O)c1` (configuration not stated), the GI50 is 3.46 µM in the assay with ACHN renal; 1.68 µM in the assay with CAKI-1 renal; 3.27 µM in the assay on K-562 leukemia; 3.2 µM in the assay on OVCAR-4 ovarian; 8.86 µM in the assay with OVCAR-5 ovarian; 3.23 µM in the assay with OVCAR-8 ovarian. Also, the GI50 in the assay on SK-OV-3 ovarian is 4.36 µM; with SN12C renal it was 5.27 µM; in the assay on SNB-19 CNS, 6.28 µM; with UO-31 renal it was 1.3 µM. The TGI in the assay with ACHN renal is more than 100 µM; in the assay with CAKI-1 renal, 7.17 µM; in the assay with K-562 leukemia, more than 100 µM; with OVCAR-4 ovarian, 27.1 µM; with OVCAR-5 ovarian, more than 100 µM; in the assay on OVCAR-8 ovarian, 16.3 µM. The TGI in the assay with SK-OV-3 ovarian is more than 100 µM; in the assay with SN12C renal, more than 100 µM; with SNB-19 CNS, more than 100 µM; with UO-31 renal, 14.6 µM.

Take `O=C(c1ccccc1)c1c2n(c3c1cc(O)c1ccccc13)CCN2`: the GI50 in the assay on ACHN renal was 13.5 µM; in the assay on CAKI-1 renal, 11.1 µM; in the assay with K-562 leukemia it was 2.56 µM; in the assay with OVCAR-4 ovarian it was 1.53 µM; with OVCAR-5 ovarian, 0.72 µM; in the assay with OVCAR-8 ovarian, 2.7 µM. Moreover, the GI50 in the assay with SK-OV-3 ovarian was 11.1 µM; in the assay with SN12C renal, 2 µM; in the assay on SNB-19 CNS it was 1.85 µM; with UO-31 renal, 16.2 µM. In addition, the TGI with ACHN renal turned out to be 33.1 µM; in the assay on CAKI-1 renal it was 52.5 µM; in the assay on K-562 leukemia, 8.2 µM; with OVCAR-4 ovarian it was 2.86 µM; in the assay on OVCAR-5 ovarian, 7.91 µM; with OVCAR-8 ovarian, 7.67 µM. For the same compound, the TGI stood at 25.2 µM in the assay with SK-OV-3 ovarian, 4.21 µM in the assay on SN12C renal, 3.46 µM in the assay with SNB-19 CNS and 31.3 µM in the assay on UO-31 renal.

Turning to `O=C1Nc2c(ccc(Cl)c2Cl)/C1=C\c1cc(C(F)(F)F)cc(C(F)(F)F)c1`, the GI50 was 3.18 µM with ACHN renal; 0.399 µM in the assay with CAKI-1 renal; 1.55 µM in the assay on K-562 leukemia; 1.81 µM in the assay with OVCAR-4 ovarian; 4.26 µM in the assay with OVCAR-5 ovarian; 5.75 µM with OVCAR-8 ovarian. For the same compound, the GI50 was 9.28 µM in the assay with SK-OV-3 ovarian, 3.59 µM in the assay with SN12C renal, 5.7 µM in the assay on SNB-19 CNS and 0.485 µM in the assay on UO-31 renal. Besides, the TGI amounted to 11.3 µM in the assay on ACHN renal; 7.85 µM in the assay with CAKI-1 renal; 5.97 µM in the assay on K-562 leukemia; 7.66 µM in the assay with OVCAR-4 ovarian; 11.4 µM in the assay with OVCAR-5 ovarian; 16 µM with OVCAR-8 ovarian. Moreover, the TGI in the assay with SK-OV-3 ovarian was found to be 27.2 µM; with SN12C renal, 10.9 µM; with SNB-19 CNS, 19.3 µM; in the assay with UO-31 renal, 8.74 µM.

As for `CCOC(=O)CP(=S)(S)c1ccccc1` (configuration not stated), the TGI in the assay on ACHN renal, in the assay on CAKI-1 renal, in the assay with K-562 leukemia, with OVCAR-4 ovarian, in the assay with OVCAR-5 ovarian and with OVCAR-8 ovarian was more than 100 µM in each case. For the same compound, the TGI with SK-OV-3 ovarian, with SN12C renal, in the assay with SNB-19 CNS and in the assay with UO-31 renal was more than 100 µM in each case.

Consider `O=C(CC(=O)N1N=C(c2ccccc2)C(N=Nc2ccccc2Cl)C1=O)Nc1ccccc1Cl` (configuration not stated), for which the TGI with ACHN renal was 99.6 µM; in the assay with CAKI-1 renal, more than 100 µM; in the assay with K-562 leukemia it was more than 100 µM; in the assay on OVCAR-4 ovarian, 63.2 µM; in the assay with OVCAR-5 ovarian, more than 100 µM; with OVCAR-8 ovarian, more than 100 µM. Also, the TGI with SK-OV-3 ovarian, with SN12C renal, with SNB-19 CNS and with UO-31 renal was more than 100 µM each time.

For `Cc1cc(N(CCC#N)CCC#N)ccc1CC1N=C(c2ccccc2)OC1=O` (configuration not stated), the TGI in the assay with ACHN renal, in the assay on CAKI-1 renal, in the assay on K-562 leukemia, in the assay on OVCAR-4 ovarian, with OVCAR-5 ovarian and in the assay with OVCAR-8 ovarian was more than 100 µM each time. In addition, the TGI in the assay with SK-OV-3 ovarian, in the assay with SN12C renal, in the assay with SNB-19 CNS and with UO-31 renal was more than 100 µM throughout.

As to `CC(C)=Cc1cc(C(=O)NCCNC(=O)c2cc(C=C(C)C)nc(NC#N)n2)nc(NC#N)n1`, the TGI in the assay with ACHN renal, with CAKI-1 renal, in the assay with K-562 leukemia, with OVCAR-4 ovarian, with OVCAR-5 ovarian and with OVCAR-8 ovarian was more than 100 µM each time. Further, the TGI with SK-OV-3 ovarian, in the assay with SN12C renal, with SNB-19 CNS and in the assay with UO-31 renal was more than 100 µM throughout.

Take `O=C(NC(Cc1ccccc1)C(=O)CCl)OCc1ccccc1` (configuration not stated): the GI50 is 3.72 µM in the assay with ACHN renal; 7.52 µM in the assay with CAKI-1 renal; 2.65 µM in the assay on K-562 leukemia; 2.04 µM in the assay with OVCAR-4 ovarian; 5.64 µM in the assay with OVCAR-5 ovarian; 11.9 µM in the assay with SK-OV-3 ovarian. Besides, the GI50 with UO-31 renal is 3.91 µM. Also, the TGI was 13.3 µM and 21.8 µM in the assay with ACHN renal; 21.2 µM and 17.3 µM with CAKI-1 renal; > 100 µM and 40.1 µM in the assay with K-562 leukemia; 13.5 µM in the assay with OVCAR-4 ovarian; 18.5 µM and 24.2 µM in the assay with OVCAR-5 ovarian; 15 µM and 17.6 µM in the assay with OVCAR-8 ovarian. For the same compound, the TGI is 29.7 µM and 27.6 µM in the assay on SK-OV-3 ovarian; 17.7 µM and 20.3 µM with SN12C renal; 25.3 µM and 25.1 µM in the assay with SNB-19 CNS; 16.4 µM and 25.6 µM in the assay on UO-31 renal.

On to `COc1ccc2c(c1)CC1N(C)CCC13CCCCC23` (configuration not stated), for which the TGI with ACHN renal, in the assay on CAKI-1 renal, with K-562 leukemia, with OVCAR-4 ovarian, in the assay with OVCAR-5 ovarian and in the assay on OVCAR-8 ovarian was more than 100 µM in each case. The TGI in the assay with SK-OV-3 ovarian, in the assay on SN12C renal, in the assay with SNB-19 CNS and in the assay on UO-31 renal was more than 100 µM throughout.

On to `CC(O)c1ccc(C(O)/C(=N\NC(=O)c2ccncc2)c2nc3ccc([N+](=O)[O-])cc3[nH]c2=O)cc1` (configuration not stated), for which the TGI with ACHN renal, in the assay on CAKI-1 renal, with K-562 leukemia, in the assay with OVCAR-4 ovarian, in the assay with OVCAR-5 ovarian and with OVCAR-8 ovarian was more than 100 µM each time. Moreover, the TGI in the assay on SK-OV-3 ovarian, in the assay on SN12C renal, in the assay with SNB-19 CNS and with UO-31 renal was more than 100 µM each time.
